# Test results published in ChEMBL document CHEMBL1201862, “PubChem BioAssay data set” (2004).
#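 Exposure lasted 48 hours, with cells grown in 96-well plates and compounds tested at five concentrations. GI50 marks 50% less growth.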 The source made the active and inactive calls. Cut-off read from the data, not from the text of the source: active = GI50 up to about 1.1 µM and inactive = higher. Square brackets hold non-standard residues; d marks the D form. Peptide text beside a SMILES is read from it. * marks the point of attachment. AllylGly = C=CC[CH](N)C(=O)O; Boc = CC(C)(C)OC(=O)*; OtBu = CC(C)(C)O*
# Key:
# Assay in all cases: NCI tumour cell line growth inhibition, 48 h
# HOP-92 = tested on: HOP-92
# MOLT-4 = tested on: MOLT-4
# BT-549 = tested on: BT-549
# SNB-19 = tested on: SNB-19
# HOP-62 = tested on: HOP-62
# EKVX = tested on: EKVX
# CAKI-1 = tested on: CAKI-1
# HCT-116 = tested on: HCT-116
# NCI-H226 = tested on: NCI-H226
# SF-295 = tested on: SF-295
# SK-MEL-2 = tested on: SK-MEL-2
# OVCAR-4 = tested on: OVCAR-4
# SNB-75 = tested on: SNB-75
# Hs-578T = tested on: Hs-578T
# K562 = tested on: K562
# HCT-15 = tested on: HCT-15
# DMS-114 = tested on: DMS-114
# DMS-273 = tested on: DMS-273
Structure (SMILES),GI50 (HOP-92),GI50 (MOLT-4),GI50 (BT-549),GI50 (SNB-19),GI50 (HOP-62),GI50 (EKVX),GI50 (CAKI-1),GI50 (HCT-116),GI50 (NCI-H226),GI50 (SF-295),GI50 (SK-MEL-2),GI50 (OVCAR-4),GI50 (SNB-75),GI50 (Hs-578T),GI50 (K562),GI50 (HCT-15) [µM],GI50 (DMS-114),GI50 (DMS-273)
Cc1ccc(/N=N/c2c(O)ccc3cc(S(=O)(=O)O)cc(S(=O)(=O)O)c23)cc1,> 100 µM (inactive),> 100 µM (inactive),> 100 µM (inactive),> 100 µM (inactive),> 100 µM (inactive),> 100 µM (inactive),> 100 µM (inactive),> 100 µM (inactive),> 100 µM (inactive),> 100 µM (inactive),> 100 µM (inactive),> 100 µM (inactive),> 100 µM (inactive),> 100 µM (inactive),> 100 µM (inactive),> 100,–,–
COc1cc(/C=C(\C#N)C(=O)c2ccccc2)ccc1OCc1ccccc1,–,> 100 µM (inactive),–,> 100 µM (inactive),> 100 µM (inactive),> 100 µM (inactive),> 100 µM (inactive),> 100 µM (inactive),> 100 µM (inactive),> 100 µM (inactive),> 100 µM (inactive),> 100 µM (inactive),–,–,> 100 µM (inactive),> 100,> 100 µM (inactive),–
C=CCC(NC(=O)C(CC(=O)OC(C)(C)C)NC(=O)OC(C)(C)C)C(=O)OC (stereo not drawn) (Boc-Asp(OtBu)-[AllylGly]-OMe; configuration not given here),> 78.2 µM (inactive),> 49.9 µM (inactive),> 100 µM (inactive),> 100 µM (inactive),> 64.1 µM (inactive),> 100 µM (inactive),> 100 µM (inactive),71.1 µM (inactive),> 100 µM (inactive),> 100 µM (inactive),73.3 µM (inactive),> 100 µM (inactive),97.9 µM (inactive),> 100 µM (inactive),47.8 µM (inactive),> 100,–,–
O=C(/C=C1\C[C@H]2C=Nc3ccccc3C(=O)N2C1)NCCCCNC(=O)/C=C1\C[C@H]2C=Nc3ccccc3C(=O)N2C1,7.93 µM (inactive),2.91 µM (inactive),12.9 µM (inactive),16.6 µM (inactive),17.2 µM (inactive),16.7 µM (inactive),2.77 µM (inactive),12.3 µM (inactive),13.8 µM (inactive),19.5 µM (inactive),15.2 µM (inactive),8.99 µM (inactive),16.3 µM (inactive),29.4 µM (inactive),3.11 µM (inactive),8.89,–,–
O=C(/N=c1/[nH]/c(=N/C(=O)c2ccccc2)ss1)c1ccccc1,–,24.7 µM (inactive),–,33.5 µM (inactive),21.9 µM (inactive),25.4 µM (inactive),30.3 µM (inactive),28.8 µM (inactive),38.8 µM (inactive),18 µM (inactive),19.4 µM (inactive),38.1 µM (inactive),38.6 µM (inactive),–,20.4 µM (inactive),21.4,26.7 µM (inactive),23.1 µM (inactive)
CC(=O)Nc1cc2c(s1)CCC1CC(=O)NN=C21 (stereo not drawn),–,> 100 µM (inactive),–,> 100 µM (inactive),> 100 µM (inactive),> 100 µM (inactive),–,> 100 µM (inactive),> 100 µM (inactive),> 100 µM (inactive),> 100 µM (inactive),> 100 µM (inactive),26.5 µM (inactive),–,> 100 µM (inactive),> 100,> 100 µM (inactive),> 100 µM (inactive)
NC(=O)NN=C1Cc2ccccc2C1,> 100 µM (inactive),> 100 µM (inactive),> 100 µM (inactive),> 100 µM (inactive),> 100 µM (inactive),> 100 µM (inactive),> 100 µM (inactive),> 100 µM (inactive),> 100 µM (inactive),> 100 µM (inactive),> 100 µM (inactive),> 100 µM (inactive),> 100 µM (inactive),> 100 µM (inactive),> 100 µM (inactive),> 100,–,–
Cc1ccc2c3ccc4c(c3n(C)c2c1)C(=O)C=CC4=O,3.1 µM (inactive),0.475 µM (active),3.32 µM (inactive),> 10 µM (inactive),> 10 µM (inactive),> 10 µM (inactive),3.36 µM (inactive),2.33 µM (inactive),> 10 µM (inactive),> 10 µM (inactive),9.95 µM (inactive),> 5.12 µM (inactive),> 10 µM (inactive),> 10 µM (inactive),1.03 µM (active),4.6,–,–
CC1(C)COC(c2cccc3c2C(=O)c2cccc(Cl)c2-3)=N1,–,29.2 µM (inactive),–,21.1 µM (inactive),–,38.3 µM (inactive),55 µM (inactive),–,–,48.4 µM (inactive),> 100 µM (inactive),44.1 µM (inactive),41.7 µM (inactive),–,33.7 µM (inactive),56.4,36 µM (inactive),51.4 µM (inactive)
COc1cc(C2c3cc4c(cc3CC3COC(=O)N32)OCO4)cc(OC)c1OC (stereo not drawn),14.1 µM (inactive),3.67 µM (inactive),6.27 µM (inactive),4.26 µM (inactive),4.12 µM (inactive),4.76 µM (inactive),3.65 µM (inactive),2.72 µM (inactive),19.5 µM (inactive),0.729 µM (active),6.73 µM (inactive),14.1 µM (inactive),14.8 µM (inactive),2.52 µM (inactive),1.57 µM (inactive),3.08,–,–
CCCC(=O)Nc1cc(/C=C/C(=O)N2CC(CCl)c3c2cc(OC(C)=O)c2[nH]cc(C)c32)n(C)c1 (stereo not drawn),4.28e-05 µM (active),< 2.5e-05 µM (active),8.09e-05 µM (active),0.00011 µM (active),4.63e-05 µM (active),0.000108 µM (active),7.66e-05 µM (active),< 2.5e-05 µM (active),4.33e-05 µM (active),4.52e-05 µM (active),5.92e-05 µM (active),< 2.5e-05 µM (active),5.77e-05 µM (active),6.56e-05 µM (active),3.06e-05 µM (active),0.000547,–,–
C=CC1(CBr)CCC(C(C)(C)Br)O1 (stereo not drawn),14.9 µM (inactive),2.21 µM (inactive),16.7 µM (inactive),15.8 µM (inactive),15.9 µM (inactive),18 µM (inactive),7.23 µM (inactive),6.64 µM (inactive),21 µM (inactive),12.3 µM (inactive),12.8 µM (inactive),14.3 µM (inactive),5.65 µM (inactive),12.6 µM (inactive),3.71 µM (inactive),6.64,–,–
COc1ccc(NC/C=C/C(=C/COC(C)=O)OC(C)=O)cc1,1.8 µM (inactive),4.75 µM (inactive),1.59 µM (inactive),3.27 µM (inactive),2.42 µM (inactive),2.03 µM (inactive),1.89 µM (inactive),1.81 µM (inactive),19.3 µM (inactive),2.12 µM (inactive),2.28 µM (inactive),1.82 µM (inactive),7.23 µM (inactive),2.12 µM (inactive),1.85 µM (inactive),2.41,–,–
CC(=O)OCC1OC(O[C@@H]2c3c(O)c4c(c(O)c3C3=C(NN(c5ccc([N+](=O)[O-])cc5[N+](=O)[O-])[Se]3=O)[C@@]2(C)O)C(=O)c2ccccc2C4=O)C(OC(C)=O)C(OC(C)=O)C1OC(C)=O (stereo partly drawn),0.451 µM (active),0.0345 µM (active),0.489 µM (active),0.323 µM (active),0.189 µM (active),0.23 µM (active),0.274 µM (active),0.141 µM (active),0.31 µM (active),0.21 µM (active),0.212 µM (active),0.201 µM (active),0.394 µM (active),0.303 µM (active),0.118 µM (active),0.211,–,–
COc1cc(S(=O)(=O)Nc2nc(-c3ccc(/N=C/c4cccs4)cc3)cs2)ccc1Cl,37.2 µM (inactive),27.5 µM (inactive),37 µM (inactive),> 100 µM (inactive),> 100 µM (inactive),> 100 µM (inactive),> 100 µM (inactive),54.6 µM (inactive),> 100 µM (inactive),> 100 µM (inactive),39.5 µM (inactive),38.9 µM (inactive),33.8 µM (inactive),> 100 µM (inactive),33.5 µM (inactive),36.1,–,–
CN1CCc2c(sc3ncn(C)c(=N)c23)C1,> 100 µM (inactive),> 100 µM (inactive),> 100 µM (inactive),> 100 µM (inactive),> 100 µM (inactive),> 100 µM (inactive),> 100 µM (inactive),> 100 µM (inactive),> 100 µM (inactive),> 100 µM (inactive),> 100 µM (inactive),> 100 µM (inactive),> 100 µM (inactive),> 100 µM (inactive),> 100 µM (inactive),> 100,–,–
C[C@@H]1S[C@H](c2c(F)cccc2Cl)n2c1nc1ccccc12,> 10 µM (inactive),5.04 µM (inactive),11.6 µM (inactive),26.4 µM (inactive),15.3 µM (inactive),22.1 µM (inactive),8.43 µM (inactive),4.49 µM (inactive),19.9 µM (inactive),18.5 µM (inactive),15.7 µM (inactive),18.5 µM (inactive),16.5 µM (inactive),20.6 µM (inactive),4.4 µM (inactive),6.76,–,–
c1csc(-c2cscc2-c2ccsc2)c1,> 86.5 µM (inactive),26.2 µM (inactive),> 100 µM (inactive),> 57.5 µM (inactive),42.3 µM (inactive),41.2 µM (inactive),> 95.3 µM (inactive),41.2 µM (inactive),> 43.5 µM (inactive),> 66.8 µM (inactive),52.2 µM (inactive),44.5 µM (inactive),> 52.1 µM (inactive),20.4 µM (inactive),31.6 µM (inactive),30.3,–,–
